Laboratory results: patent publication US11491105B2, “Methods of treating microbial infections, including mastitis” (priority 2013, dated 2022)
In brackets after ≈: the same amount, converted by molar mass.

What was measured:
[1] = tested on: ATCC 49775 reference strain; test: Macrodilution time-kill assay; type: cell-based, Staphylococcus; conditions: 24 hours
Description: (§1) Due to the detection limit of the OD measurements, the time-kill assays were also performed in macrodilution. In 15 mL tubes, 9 mL volumes of the test compounds in CAMHB were prepared at one, four and eight times the MIC concentration and 9 mL volumes of ampicillin were prepared in CAMHB at one and four times the MIC. 1 mL of a 4 to 5×10^6 bacterial suspension (as prepared for MIC testing) was added to each of the tubes as well as a growth control tube containing only 9 mL of CAMHB. These tubes were incubated at 37° C. in an orbital shaker rotating at 100 rpm for 24 hours. At 0, 1, 4, 8, 12 and 24 hours after addition of the bacteria, 100 μL samples were removed from each tube and serial diluted in 9.1 g/L saline solution. The dilutions were then plated in duplicate onto plate count agar and incubated for 24 hours at 37° C. After incubation, viable counts were obtained from the number of colonies visible on the agar and these were used to calculate the number of CFU/mL at each time point. For the macrodilution time-kill analysis, only the ATCC 49775 reference strain and MRSA 9 were assessed in order to further investigate the antibacterial activity against methicillin-resistant strains. These macrodilution time-kill assays were independently repeated and bactericidal activity was defined as a ≥3 log decrease in the number of CFU/mL.

[2] = tested on: Staphylococcus isolates (methicillin-sensitive and methicillin-resistant); test: Minimum bactericidal concentration determination (Example 1); type: cell-based; conditions: for bactericidal activity (MBC testing): methicillin-sensitive and methicillin-resistant strains
Description: Following determination of the MIC using the 96 well MIC plate, a variation of the drop plate method was used to determine minimum bactericidal concentration (MBC) for each of the test compounds. These were analysed using samples taken from the MIC plate following incubation. For each compound, a 10 μL drop of each concentration equal to or higher than the MIC was pipetted onto Sheep Blood Agar in a clockwise manner (FIG. 3). Each concentration was pipetted in duplicate with duplicates being pipetted on an inner ring of drops. The plates were incubated at 37° C. overnight and assessed the following day for growth. The MBC was defined as the concentration at which 99.9% of colonies were eradicated, which was visually assessed by a lack of growth on the agar where the drop was placed. […] The MBC values for 50% and 90% of the isolates (MBC50 and MBC90) were calculated and assessed along with the MBC range in order to select compounds for further study.

bovine mastitis isolates = test: Minimum inhibitory concentration assay (Example 3); type: cell-based; conditions: for MIC90: 51 Australian bovine mastitis isolates
Excerpt: Fifty-one dairy bovine mastitis isolates, encompassing a variety of bacterial species, were isolated from milk samples collected from dairy farms in rural South Australia by the University of Adelaide Ambulatory Clinic. Cellular morphology observed from Gram stains and catalase testing was used to differentiate Staphylococcus, Streptococcus and Corynebacterium species from Gram-negative species. Further biochemical testing including coagulase, Lancefield grouping, esculin hydrolysis and CAMP tests were used to identify the isolates to species level. Where biochemical test results were not definitive in identifying species, amplification and sequencing of the 16S ribosomal RNA gene was used to confirm the identity of the isolates.
Minimum inhibitory concentration tests were performed in the manner outlined by the CLSI (CLSI 2012). Test compounds were dispensed into a 96-well microtitre tray containing 90 μl of CAMHB in 90 μl volumes and serial diluted to obtain a concentration gradient ranging from 128 μg/ml to 0.25 μg/ml (see FIG. 24). For Streptococcus species, CAMHB was replaced with a CAMHB supplement with 4% lysed-sheep blood (4% LSB:CAMHB). 4% LSB:CAMHB was prepared by mixing 5 ml sheep blood to 5 ml milliQ water, and repeated freezing at −20° C. and thawing, followed by centrifuged for 20 min at 7000 rpm. 7 ml of the supernatant was removed and added to 93 mL of CAMB.
Bacterial suspensions were prepared by emulsifying fresh colonies obtained from an overnight culture on Sheep Blood Agar (SBA) in 4 mls of 9.1 g/l physiological saline to an optical density read at 600 nm (OD600nm) between 1.00 and 1.20. Standardised bacterial suspensions were diluted 1:10 in physiological saline and dispensed into all wells, excluding the negative control wells, in 10 μL volumes giving a final concentration of between 4×10^5 and 5×10^5 CFU/mL in each well. 96-well microtitre trays were incubated for 24 hours at 37° C. in 5% CO2 and then assessed both visually and using OD readings from a microplate reader at a wavelength of 600 nm. These tests were performed in duplicate and repeated if discrepancies in MIC values were observed between replicates.
The minimum inhibitory concentration (MIC) was determined to be the lowest concentration of antibiotic that prevented growth of bacteria both visually and using OD readings. MIC values were collated and used to determine the lowest concentration of each compound effective against 50% and 90% of isolates, known as the MIC50 and MIC90 respectively. These values as well as the range of MIC values were then used for direct comparisons between test compounds and for general comparisons with ampicillin.

MRSA 9 = test: Macrodilution time-kill assay; type: cell-based, Staphylococcus aureus; conditions: 24 hours
Description: as §1

| Compound | decrease in the number of viable bacteria ([1]; all concentrations tested) [log10] | strains against which bactericidal activity was exhibited more consistently [2] | bactericidal activity (MBC testing) [2] | MBC50 (rank among test compounds) ([2]; methicillin-sensitive isolates) | MIC values (in words) (bovine mastitis isolates) | antibacterial activity against the bovine mastitis isolates (bovine mastitis isolates) | MIC90 (bovine mastitis isolates) [µg/mL] | decrease in the number of viable bacteria (MRSA 9; all concentrations tested) [log10] | bactericidal or bacteriostatic (>=3 log decrease in CFU/mL = bactericidal) ([1]; LP 6315: most concentrations) | MBC50 (rank among test compounds) ([2]; methicillin-resistant isolates) | bactericidal or bacteriostatic (>=3 log decrease in CFU/mL = bactericidal) (MRSA 9; LP 6315: most concentrations) | decrease in colonies (MRSA 9; four times the MIC) [log10] |
| --- | --- | --- | --- | --- | --- | --- | --- | --- | --- | --- | --- | --- |
| CC[C@@H](C(=O)[C@@H](C)[C@@H](O)[C@H](C)CCc1ccc(C)c(O)c1C(=O)O)[C@H]1O[C@](CC)([C@H]2CC[C@](O)(CC)[C@H](C)O2)C[C@@H]1C [LP 1369, Lasalocid] | < 3 | methicillin-sensitive strains | some bactericidal activity in lower concentrations | lowest MBC50 values | low MIC values | observed | 4 (≈ 6.77 µM) | < 3 | – | – | – | – |
| CO[C@@H]1[C@@H](OC)[C@H](C)[C@@](O)(CC(=O)O)O[C@H]1[C@H](C)[C@H]1O[C@@]2(CC[C@@](C)([C@H]3CC[C@@](C)([C@@H]4O[C@@H]([C@H]5O[C@](C)(O)[C@H](C)C[C@@H]5C)C[C@@H]4O[C@@H]4C[C@H](OC)[C@@H](OC)[C@H](C)O4)O3)O2)C[C@H](O)[C@H]1C.N [LP 6315, Maduramicin] | – | methicillin-sensitive strains | some bactericidal activity in lower concentrations | – | low MIC values | observed | 4 | – | bacteriostatic | lowest MBC50 values | bacteriostatic | > 3 |
